Laboratory results as given in ChEMBL document CHEMBL1212870, “Concise synthesis of 5,6-dihydrovaltrate leading to enhanced Rev-export inhibitory congener” (Bioorg Med Chem, 2010).

Experiment: Inhibition of hemagglutininin-tagged HIV1 Rev protein nuclear export in human HeLa cells assessed as localization by indirect fluorescent antibody technique
Format: cell-based, Human immunodeficiency virus 1

SMILES | IC50
CC(=O)OCC1=CO[C@@H](OC(=O)CC(C)C)[C@H]2[C@@H]1C[C@H](OC(=O)CC(C)C)[C@]21CO1 | 4.4 µM
CCCCOCC1=CO[C@@H](OC(=O)CC(C)C)[C@H]2[C@@H]1C[C@H](OC(=O)CC(C)C)[C@]21CO1 | 3.3 µM

Results, then the molecule that gave them:

IC50 | SMILES
1 µM | CC(=O)OCC1=CO[C@@H](OC(C)=O)[C@H]2[C@@H]1C[C@H](OC(=O)CC(C)C)[C@]21CO1
2.6 µM | CC(=O)OCC1=CO[C@@H](OC(=O)CC(C)C)[C@H]2[C@@H]1C[C@H](OC(C)=O)[C@]21CO1
2.5 µM | CC(=O)OCC1=CO[C@@H](OC(=O)CC(C)C)[C@H]2C1=C[C@H](OC(=O)CC(C)C)[C@]21CO1 [VALTRATE]
